19 compounds from patent US5696277A, “Antiviral prodrugs” (Hostetler; Karl Y., priority 1994, dated 1997) can be followed below.

The term IC50 denotes the point on the concentration scale where inhibition reaches its midpoint. The term CC50 denotes the concentration that lowers cell viability or growth by half.

Data set [1] has as its system human cytomegalovirus. Description: CMV antiviral susceptibility assay: HCMV DNA by nucleic acid hybridization in infected MRC-5 cells (Tables I and II). The format is cell-based. The note with it: for fold increase in activity / times the activity of PAA: HCMV; for IC50: HCMV-infected MRC-5 cells, HCMV DNA after five days, mean ± S.D. (n). Here is the method:
Phosphonoacid derivatives having structures according to formula I were tested for antiviral activity in human embryonic lung fibroblasts (MRC-5) or in human epithelioid cervical carcinoma cells (HeLa) expressing the CD4 receptor (HT4-6C). HCMV (strain AD-169) and HSV-1 (wild type) were used to infect MRC-5 cells and HCMV or HSV-specific DNA was measured by DNA-probe methods (HybriwixTM, Diagnostic Hybrids, Inc., Athens, Ohio) according to the manufacturer's instructions. HIV replication was accessed in HIV-1 infected HT4-6C cells using a plaque reduction assay ([…]. et al. (1990) Antimicrobial Agents Chemother. 34:436). Subconfluent MRC-5 cells in 24-well culture dishes were pretreated for 24 hours with various concentrations of drug in MEM medium containing 2% FBS and antibiotics. The media was removed and virus added at a dilution that will result in a 3-4+ cytopathic effect (CPE) in the no-drug wells in five days. This was absorbed for 1 hour at 37° C., aspirated and replaced with the drug dilutions. After five days of incubation HCMV DNA was quantified in triplicate by nucleic acid hybridization using a CMV Antiviral Susceptibility Test Kit from Diagnostic Hybrids, Inc. (Athens, Ohio). The media was removed and cells lysed according to the manufacturer's instructions. After absorption of the lysate, the HybriwixTM filters were hybridized overnight at 60° C. The HybriwixTM were washed for 30 minutes at 73° C. and counted in a gamma counter. The results are expressed as a percentage of the untreated HCMV-infected control cells.

In data set [2] the test system is MRC-5 cells. Description: in vitro. The format is cell-based, human. Here is the method:
(§1) The cytotoxicity of B-PFA and B-PAA in subconfluent MRC-5 cells was assessed by trypan blue exclusion.

Data set [3] is described as follows: in vitro. The format is cell-based, human. As to conditions: human, mrc-5 cells. Here is the method:
as §1

Data set [4] deals with human herpes simplex virus 1. Description: HSV antiviral susceptibility assay: HSV DNA by nucleic acid hybridization in infected MRC-5 cells (Table III). The class given is cell-based. The note with it: for times more active than PFA / fold increase in activity: HSV-1; for fold increase in activity: versus PFA; for IC50: Human alphaherpesvirus 1, MRC5, HSV-1-infected MRC-5 cells, approximately 24 hours, mean ± S.D. (n), read-out: IC50. Here is the method:
(§2) Phosphonoacid derivatives having structures according to formula I were tested for antiviral activity in human embryonic lung fibroblasts (MRC-5) or in human epithelioid cervical carcinoma cells (HeLa) expressing the CD4 receptor (HT4-6C). HCMV (strain AD-169) and HSV-1 (wild type) were used to infect MRC-5 cells and HCMV or HSV-specific DNA was measured by DNA-probe methods (Hybriwix™, Diagnostic Hybrids, Inc., Athens, Ohio) according to the manufacturer's instructions. HIV replication was accessed in HIV-1 infected HT4-6C cells using a plaque reduction assay (Larder, B. et al. (1990) Antimicrobial Agents Chemother. 34:436).
Subconfluent MRC-5 cells in 24-well culture dishes were inoculated by removing the media and adding HSV-1 virus at a dilution that will result in a 3-4+ CPE in the no-drug well in 20-24 hours. This was absorbed for 1 hour at 37° C., aspirated and replaced with various concentrations of drugs in MEM medium containing 2% FBS and antibiotics. After approximately 24 hours of incubation, HSV DNA was quantified in triplicate by nucleic acid hybridization using a HSV Antiviral Susceptibility Test Kit from Diagnostic Hybrids, Inc. (Athens, Ohio). The media was removed and cells lysed according to the manufacturer's instructions. After absorption of the lysate, the Hybriwix™ filters were hybridized overnight at […] The Hybriwix™ were washed for 30 minutes at 73° C. and counted in a gamma counter. The results are expressed as a percentage of the untreated HSV-infected control cells.

Data set [5] concerns human immunodeficiency virus-1. Description: HIV-1 plaque reduction assay in HT4-6C cells (Table IV). The class given is cell-based, HIV-1 in CD4-expressing human HeLa cells (HT4-6C). The note with it: for fold increase in activity: HIV-1, versus PFA; for IC50: Human immunodeficiency virus 1, 72 h, HIV-1 plaque reduction in HT4-6C cells, 3 days, mean ± S.D. (n). The procedure: as §2
HT4-6C cells and plaque reduction assay, CD4-expressing HeLa cells, HT4-6C cells (Chesebro, B. and K. Wehrly (1988) J. Virology 62:3779-3788), were obtained from Bruce Chesebro, Hamilton, Mont. The effect of antiviral compounds on HIV replication was measured by a plaque reduction assay. Briefly, monolayers of HT4-6C cells were infected with 100 to 300 PFU of virus per well in 24-well microdilution plates. Various concentrations of drug were added to the culture medium, Dulbecco's Modified Eagle Medium containing 5% fetal bovine serum and antibiotics, as noted above. After 3 days at 37° C., the monolayers were fixed with 10% formaldehyde solution in phosphate-buffered saline and stained with 0.25% crystal violet to visualize virus plaques (Larder, B. et al. (1989) Science 243:1731-1734). Antiviral activity was assessed as the percentage of control plaques measured in drug-treated samples.

The mark [6] stands for this setting: phosphonoacetate series, versus PAA.
Where [7] appears, read: Human betaherpesvirus 5, MRC5, 120 h.
The mark [8] stands for this setting: phosphonoformate series, versus PFA.

As for `CCCCCCCCCCCCCCCCCCOC[C@@H](O)COP(=O)(O)CC(=O)O` [B--PAA, 1O-octadecyl-snglycero-3-phosphonoacetic acid], in data set [1] (setting [6]), the “fold increase in activity” value is 100 fold. The IC50 in data set [1] (setting [7]) was 0.22 ± 0.08 µM. Besides, the selectivity index in data set [2] is given as not below 300. The same compound had a half-maximal cytotoxic concentration (CC50) in data set [3] of 32 to 100 µM.

As for `CCCCCCCCCCCCCCCCCCOC[C@@H](O)COP(=O)(O)CC(=O)OCC` [B--PAA--OEt, 1O-octadecyl-snglycero-3-phosphonoacetate ethyl ester], in data set [1] (setting [6]), the “fold increase in activity” value stood at 6.1 fold. For the same compound, the concentration for half-maximal inhibition (IC50) in data set [1] (setting [7]) was determined as 3.6 ± 1.5 µM.

For `CCCCCCCCCCCCCCCCCCOC[C@@H](O)COP(=O)(O)C(=O)O` [B--PFA, 1O-octadecyl-snglycero-3-phosphonoformic acid], in data set [4], the “times more active than PFA” value was 43 times. Further, the “fold increase in activity” value in data set [4] came out at 43 fold; in data set [1] (setting [8]) it was 107 fold; in data set [5] it was 37 fold. The IC50 worked out at 1.1 ± 1.1 µM in data set [4], 0.43 ± 0.27 µM in data set [1] (setting [7]) and 3.6 ± 1.51 µM in data set [5]. Also, the selectivity index in data set [2] is recorded as not below 300. The cytotoxic concentration (CC50) in data set [3] was more than 1000 µM.

On to `CCCCCCCCCCCCCCCCCCOC[C@@H](O)COP(=O)(O)C(=O)OCC` [B--PFA--OEt, 1O-octadecyl-snglycero-3-phosphonoformate ethyl ester], for which the “fold increase in activity” value in data set [1] (setting [8]) was 38 fold. The IC50 in data set [1] (setting [7]) was 1.2 ± 0.49 µM.

In the case of `CCCCCCCCCCCCCCCCCCOC[C@H](COC(=O)CP(=O)(O)O)OCc1ccccc1` [BB--(C)--PAA, 1O-octadecyl-2-O-benzyl-snglycero-3-carboxymethylenephosphonate], the “fold increase in activity” value in data set [1] (setting [6]) stood at 16 fold. Besides, half-maximal inhibition in data set [1] (setting [7]) (IC50) was put at 1.4 ± 0.9 µM.

For the compound `CCCCCCCCCCCCCCCCCCOC[C@H](COP(=O)(O)CC(=O)O)OCc1ccccc1` [BB--PAA, 1O-octadecyl-2-O-benzyl-snglycero-3-phosphonoacetic acid], the “fold increase in activity” value in data set [1] (setting [6]) was 24 fold. In addition, in data set [1] (setting [7]), the 50% inhibitory concentration (IC50) worked out at 0.92 ± 0.8 µM.

Regarding `CCCCCCCCCCCCCCCCCCOC[C@H](COP(=O)(O)CC(=O)OCC)OCc1ccccc1` [BB--PAA--OEt, 1O-octadecyl-2-O-benzyl-snglycero-3-phosphonoacetate ethyl ester], the “fold increase in activity” value in data set [1] (setting [6]) is on record as 3.1 fold. For the same compound, in data set [1] (setting [7]), the IC50 is 7.2 ± 1 µM.

Turning to `CCCCCCCCCCCCCCCCCCOC[C@H](COP(=O)(O)C(=O)O)OCc1ccccc1` [BB--PFA, 1O-octadecyl-2-O-benzyl-snglycero-3-phosphonoformic acid], the “times more active than PFA” value in data set [4] came out at 34 times. Besides, the “fold increase in activity” value came to 34 fold in data set [4], 72 fold in data set [1] (setting [8]), 9.0 fold in data set [5] and 9 fold in data set [5] (listed as BB-PFA). Besides, the half-maximal inhibitory concentration (IC50) in data set [4] amounted to 1.4 ± 0.4 µM; in data set [1] (setting [7]), 0.64 ± 0.65 µM; in data set [5] it was 14.8 ± 7.3 µM.

Turning to `CCCCCCCCCCCCCCCCCCOC[C@H](COP(=O)(O)C(=O)OCC)OCc1ccccc1` [BB--PFA--OEt, 1O-octadecyl-2-O-benzyl-snglycero-3-phosphonoformate ethyl ester], the “fold increase in activity” value in data set [1] (setting [8]) came out at 16 fold. The same compound returned a 50% inhibitory concentration (IC50) in data set [1] (setting [7]) of 2.9 ± 0.97 µM.

As for `CCCCCCCCCCCCCC(=O)OC[C@H](COP(=O)(O)CC(=O)O)OC(=O)CCCCCCCCCCCCC` [DMG--PAA, 1,2dimyristoyl-snglycero-3-phosphonoacetate], the “times the activity of PAA” value in data set [1] is 1.2 times. In addition, the “fold increase in activity” value in data set [1] (setting [6]) amounted to 1.2 fold. In data set [1] (setting [7]), the IC50 came to 19 ± 6.5 µM.

As to `CCCCCCCCCCCCCC(=O)OC[C@H](COP(=O)(O)CC(=O)OCC)OC(=O)CCCCCCCCCCCCC` [DMG--PAA--OEt, 1,2dimyristoyl-snglycero-3-phosphonoacetate ethyl ester], the “fold increase in activity” value in data set [1] (setting [6]) is 0.2 fold. This compound showed a concentration for half-maximal inhibition (IC50) in data set [1] (setting [7]) of 108 ± 42 µM.

Consider `CCCCCCCCCCCCCC(=O)OC[C@H](COP(=O)(O)C(=O)O)OC(=O)CCCCCCCCCCCCC` [DMG--PFA, 1,2dimyristoyl-snglycero-3-phosphonoformate], for which the “fold increase in activity” value in data set [1] (setting [8]) was 0.33 fold. The compound also had an IC50 in data set [1] (setting [7]) of 125 ± 43 µM.

In the case of `CCCCCCCCCCCCCC(=O)OC[C@H](COP(=O)(O)C(=O)OCC)OC(=O)CCCCCCCCCCCCC` [DMG--PFA--OEt, 1,2dimyristoyl-snglycero-3-phosphonoformate ethyl ester], the “fold increase in activity” value in data set [1] (setting [8]) is 1.53 fold. This compound also showed an IC50 in data set [1] (setting [7]) of 30 ± 18 µM.

For the compound `CCCCCCCCCCCCCC(=O)OC[C@H](COP(=O)(O)OP(=O)(O)CC(=O)O)OC(=O)CCCCCCCCCCCCC` [DMP--PAA, 1,2dimyristoyl-snglycero-3-phospho-phosphonoacetate], in data set [1], the “times the activity of PAA” value came out at 0.24 times and half-maximal inhibition (IC50) required 93 ± 92 µM. In addition, the “fold increase in activity” value in data set [1] (setting [6]) is on record as 0.2 fold.

Turning to `CCCCCCCCCCCCCC(=O)OC[C@H](COP(=O)(O)OP(=O)(O)CC(=O)OCC)OC(=O)CCCCCCCCCCCCC` [DMP--PAA--OEt, 1,2dimyristoyl-snglycero-3-phospho-phosphonoacetate ethyl ester], half-maximal inhibition in data set [1] (IC50) was put at 130 ± 28 µM. Further, the “fold increase in activity” value in data set [1] (setting [6]) is reported as 0.2 fold.

Turning to `CCCCCCCCCCCCCCCC(=O)OC[C@H](COP(=O)(O)OP(=O)(O)CC(=O)O)OC(=O)CCCCCCCCCCCCCCC` [DPP--PAA, 1,2dipalmitoyl-snglycero-3-phospho-phosphonoacetate], in data set [1], the “times the activity of PAA” value is on record as 0.28 times and the IC50 was 80 ± 42 µM. Besides, in data set [1] (setting [6]), the “fold increase in activity” value came to 0.3 fold.

On to `CCCCCCCCCCCCCCCCCCOC[C@H](COP(=O)(O)CC(=O)O)OC` [MB--PAA, 1O-octadecyl-2-O-methyl-snglycero-3-phosphonoacetic acid], for which the “fold increase in activity” value in data set [1] (setting [6]) is on record as 36 fold. The same compound returned an IC50 in data set [1] (setting [7]) of 0.61 ± 0.76 µM.

As to `CCCCCCCCCCCCCCCCCCOC[C@H](COP(=O)(O)CC(=O)OCC)OC` [MB--PAA--OEt, 1-O-octadecyl-2-O-methyl-sn-glycero-3-phosphonoacetic acid ethyl ester], the “fold increase in activity” value in data set [1] (setting [6]) is 3.3 fold. In data set [1] (setting [7]), this compound displayed a half-inhibitory concentration (IC50) of 6.7 ± 1.9 µM.

On to `CCCCCCCCCCCCCCCCCCOC[C@H](COP(=O)(O)C(=O)O)OC` [MB--PFA, 1O-octadecyl-2-O-methyl-snglycero-3-phosphonoformic acid], for which the “times more active than PFA” value in data set [4] is reported as 72 times. Moreover, the “fold increase in activity” value came out at 72 fold in data set [4]; 72 fold in data set [1] (setting [8]); 38 fold in data set [1] (phosphonoformate series, versus PFA, listed as MB-PFA); 104 fold in data set [5]. The IC50 is 0.65 ± 0.21 µM in data set [4], 0.64 ± 0.14 µM in data set [1] (setting [7]) and 1.28 ± 0.73 µM in data set [5]. Also, in data set [5] (HIV-1, HT4-6C cells, p = 0.0373 versus B-PFA), the “activity compared with B-PFA” value is given as “more active than B-PFA to a statistically significant degree”.
